Results from patent US11691980B2, “Liphagal analog and multi-targeted kinase inhibitor containing liphagal or analog thereof” (TOHOKU UNIVERSITY, priority 2017, dated 2023).

Legend:
Type in all cases: biochemical
[1] = molecular target: PIK3CA/PIK3R1 (Homo sapiens, UniProt P42336); assay: ADP-Glo Kinase Assay; conditions: FIG. 4
Protocol: CD-3 produced in the foregoing was used as a test substance, and was measured for its IC50 value for PIK3CA/PIK3R1 by ADP-Glo™ Kinase Assay. A specific procedure is as described below.
The test substance was dissolved in dimethyl sulfoxide (DMSO), and further diluted with DMSO to prepare a solution having a 100-fold concentration with respect to a Lest concentration. The solution was further diluted 25-fold with an assay buffer to prepare a test substance solution. A positive control substance was similarly treated to prepare a positive control substance solution.
1) 5 μL of a test substance solution having a 4-fold concentration, 5 μL of a substrate solution having a 4-fold concentration, 5 μL of an ATP solution having a 4-fold concentration, and 5 μL of a kinase/metal solution having a 4-fold concentration, which had been prepared with an assay buffer (50 mM MOPS, 1 mM DTT, pH 7.2), were mixed in wells of a 384 well black plate made of polystyrene, and the mixture was subjected to a reaction at room temperature for 1 hour. […]
4) The kinase reaction was assessed in terms of relative light unit (RLU). […]
An IC50 value was determined by approximating a plot of test substance concentration and inhibition rate to a 4-parameter logistic curve by a nonlinear least-squares method.

[2] = molecular target: PIM2 (Homo sapiens, UniProt Q9P1W9); assay: IC50 by mobility shift assay; conditions: for IC50: Table 2, mobility shift assay, read-out: IC50 (μM), Kinase PIM2; for inhibitory activity against PIM2: in words, Table 2
PIM2, sequence (Q9P1W9 whole entry): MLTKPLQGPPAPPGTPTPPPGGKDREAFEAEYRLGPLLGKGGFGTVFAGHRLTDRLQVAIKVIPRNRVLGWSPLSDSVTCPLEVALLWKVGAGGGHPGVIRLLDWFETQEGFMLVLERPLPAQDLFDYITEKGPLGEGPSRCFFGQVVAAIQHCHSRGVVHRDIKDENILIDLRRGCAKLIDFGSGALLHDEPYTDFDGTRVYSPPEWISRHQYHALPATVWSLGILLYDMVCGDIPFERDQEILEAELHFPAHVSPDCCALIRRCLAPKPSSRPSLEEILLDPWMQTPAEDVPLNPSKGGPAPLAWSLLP
Excerpt: (§1) The compounds produced in Production Examples described above were each assessed for its inhibitory activity against CDK7, PIM2, and PI3K by mobility shift assay. In addition, a combination showing the highest inhibitory activity against each kinase is indicated by italics.

[3] = molecular target: CDK7/CycHMAT1 (Homo sapiens, UniProt P50613); assay: IC50 by mobility shift assay; conditions: Table 2, mobility shift assay; read-out: IC50 (μM), Kinase CDK7/CycH/MAT1
CDK7/CycHMAT1, sequence (P50613 whole entry): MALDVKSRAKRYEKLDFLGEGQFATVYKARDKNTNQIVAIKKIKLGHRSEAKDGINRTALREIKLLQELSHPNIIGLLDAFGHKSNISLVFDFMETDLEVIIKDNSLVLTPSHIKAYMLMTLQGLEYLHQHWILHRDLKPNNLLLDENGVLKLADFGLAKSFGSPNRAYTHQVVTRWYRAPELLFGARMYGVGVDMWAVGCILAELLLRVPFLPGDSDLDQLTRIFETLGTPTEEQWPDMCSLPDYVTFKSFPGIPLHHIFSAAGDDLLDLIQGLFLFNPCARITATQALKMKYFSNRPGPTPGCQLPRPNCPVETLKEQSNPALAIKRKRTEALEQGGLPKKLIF
CDK7/CycHMAT1, sequence (P51946 whole entry partner): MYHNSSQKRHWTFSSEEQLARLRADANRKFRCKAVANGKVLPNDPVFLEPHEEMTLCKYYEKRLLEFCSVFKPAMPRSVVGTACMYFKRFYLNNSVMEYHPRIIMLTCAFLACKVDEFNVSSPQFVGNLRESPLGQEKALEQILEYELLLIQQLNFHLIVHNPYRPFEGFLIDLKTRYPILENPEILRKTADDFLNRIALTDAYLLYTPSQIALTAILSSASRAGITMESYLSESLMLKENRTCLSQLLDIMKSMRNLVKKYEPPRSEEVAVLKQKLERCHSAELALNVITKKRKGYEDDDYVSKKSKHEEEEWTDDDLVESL
CDK7/CycHMAT1, sequence (P51948 whole entry partner): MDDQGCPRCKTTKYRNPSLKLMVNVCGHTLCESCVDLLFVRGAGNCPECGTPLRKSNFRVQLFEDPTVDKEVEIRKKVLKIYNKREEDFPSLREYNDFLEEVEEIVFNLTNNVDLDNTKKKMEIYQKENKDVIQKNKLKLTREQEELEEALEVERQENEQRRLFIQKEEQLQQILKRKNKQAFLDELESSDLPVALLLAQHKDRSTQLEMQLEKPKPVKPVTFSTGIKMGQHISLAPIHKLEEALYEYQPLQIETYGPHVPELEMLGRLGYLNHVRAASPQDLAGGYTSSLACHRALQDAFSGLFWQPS
Excerpt: as §1

[4] = molecular target: PIK3α (PIK3CA/PIK3R1) (Homo sapiens, UniProt P42336); assay: IC50 by mobility shift assay; conditions: Table 2, mobility shift assay; read-out: IC50 (μM), Kinase PIK3CA/PIK3RI
PIK3α (PIK3CA/PIK3R1), sequence (P42336 whole entry): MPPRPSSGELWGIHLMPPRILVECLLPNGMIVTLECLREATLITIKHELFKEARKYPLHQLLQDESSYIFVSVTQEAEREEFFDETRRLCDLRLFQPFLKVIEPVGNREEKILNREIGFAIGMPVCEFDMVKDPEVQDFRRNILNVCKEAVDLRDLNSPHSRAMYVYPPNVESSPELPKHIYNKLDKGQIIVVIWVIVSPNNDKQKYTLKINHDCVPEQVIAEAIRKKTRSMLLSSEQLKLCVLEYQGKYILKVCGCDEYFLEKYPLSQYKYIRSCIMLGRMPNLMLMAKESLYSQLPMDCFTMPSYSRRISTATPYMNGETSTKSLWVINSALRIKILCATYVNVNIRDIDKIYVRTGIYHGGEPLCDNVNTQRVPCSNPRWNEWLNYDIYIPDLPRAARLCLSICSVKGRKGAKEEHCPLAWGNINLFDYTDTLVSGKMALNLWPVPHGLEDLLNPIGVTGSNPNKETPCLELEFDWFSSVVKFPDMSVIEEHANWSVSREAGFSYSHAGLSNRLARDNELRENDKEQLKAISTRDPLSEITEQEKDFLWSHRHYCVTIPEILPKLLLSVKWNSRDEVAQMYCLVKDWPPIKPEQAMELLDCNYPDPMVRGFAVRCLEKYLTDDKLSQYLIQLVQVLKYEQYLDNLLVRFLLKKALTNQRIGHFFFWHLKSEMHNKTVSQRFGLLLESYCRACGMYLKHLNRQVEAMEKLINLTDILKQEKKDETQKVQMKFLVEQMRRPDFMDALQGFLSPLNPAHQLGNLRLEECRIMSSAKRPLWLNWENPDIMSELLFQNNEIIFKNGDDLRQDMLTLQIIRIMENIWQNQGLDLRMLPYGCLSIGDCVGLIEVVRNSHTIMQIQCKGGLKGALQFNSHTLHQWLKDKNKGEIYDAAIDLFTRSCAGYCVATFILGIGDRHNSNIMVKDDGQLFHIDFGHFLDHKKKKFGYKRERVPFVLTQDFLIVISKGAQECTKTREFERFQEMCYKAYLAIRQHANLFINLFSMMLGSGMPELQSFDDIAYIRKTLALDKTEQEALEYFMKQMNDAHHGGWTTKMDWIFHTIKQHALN
PIK3α (PIK3CA/PIK3R1), sequence (P27986 whole entry partner): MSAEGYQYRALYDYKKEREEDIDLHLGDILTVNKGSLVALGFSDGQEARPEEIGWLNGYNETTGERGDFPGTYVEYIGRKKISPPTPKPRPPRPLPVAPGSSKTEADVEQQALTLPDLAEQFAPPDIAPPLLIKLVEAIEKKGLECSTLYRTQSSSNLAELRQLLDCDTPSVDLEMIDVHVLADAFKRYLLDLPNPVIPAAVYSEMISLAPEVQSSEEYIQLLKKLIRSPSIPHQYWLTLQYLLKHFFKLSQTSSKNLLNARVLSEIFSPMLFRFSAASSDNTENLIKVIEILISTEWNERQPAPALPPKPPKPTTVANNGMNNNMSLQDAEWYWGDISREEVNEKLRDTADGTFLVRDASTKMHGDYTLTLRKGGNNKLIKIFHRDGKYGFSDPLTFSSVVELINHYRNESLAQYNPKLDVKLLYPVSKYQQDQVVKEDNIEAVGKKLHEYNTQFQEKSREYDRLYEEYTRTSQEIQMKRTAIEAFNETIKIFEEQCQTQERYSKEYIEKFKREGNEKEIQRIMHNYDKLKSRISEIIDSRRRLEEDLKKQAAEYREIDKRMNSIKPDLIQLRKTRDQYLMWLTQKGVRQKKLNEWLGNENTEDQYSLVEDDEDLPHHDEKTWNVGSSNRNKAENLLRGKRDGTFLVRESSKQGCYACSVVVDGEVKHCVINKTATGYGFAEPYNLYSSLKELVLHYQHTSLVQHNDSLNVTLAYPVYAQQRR
Protocol: The compounds obtained in Production Examples described above were each measured for its IC50 value for PIK3α (PIK3CA/PIK3R1) by mobility shift assay. The mobility shift assay is a method involving separating and quantifying a substrate and a phosphorylated substrate on the basis of mobility in a capillary. Each compound was mixed at various concentrations with an assay buffer (20 mM HEPES, 2 mM DTT, 25 μM sodium cholate, 75 mM NaCl, 20 μM cantharidine) together with 21 nM PI3K, 1,000 nM phosphatidyl inositol, 50 μM ATP, and 5 mM MgCl, and the mixture was subjected to a reaction at room temperature for 5 hours, followed by the mobility shift assay. The test was repeated twice. The enzymatic reaction was assessed on the basis of a product ratio (P/(P+S)) calculated from the height of a substrate peptide peak (S) and the height of a phosphorylated peptide peak (P). An inhibition rate was calculated from a signal obtained when each compound was added, with the average signal of a control containing all reaction components being defined as 0% inhibition and the average signal of a background (no enzyme added) being defined as 100% inhibition.
as §1

[5] = molecular target: CDK6 (Homo sapiens, UniProt Q00534); assay: IC50 by mobility shift assay; conditions: Table 4, inhibitory activity against CDK6, mobility shift assay; read-out: IC50 (μM), Kinase
CDK6, sequence (Q00534 whole entry): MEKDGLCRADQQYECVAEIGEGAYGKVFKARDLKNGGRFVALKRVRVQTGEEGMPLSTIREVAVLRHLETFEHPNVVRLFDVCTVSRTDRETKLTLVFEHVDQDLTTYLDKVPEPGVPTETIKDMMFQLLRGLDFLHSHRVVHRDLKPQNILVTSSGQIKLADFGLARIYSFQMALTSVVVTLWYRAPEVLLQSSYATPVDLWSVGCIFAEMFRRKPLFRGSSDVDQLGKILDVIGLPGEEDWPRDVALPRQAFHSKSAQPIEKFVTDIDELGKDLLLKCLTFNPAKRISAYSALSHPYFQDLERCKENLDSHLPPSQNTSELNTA
Excerpt: Next, the compounds produced in Production Examples described above were each assessed for its inhibitory activity against CDK6 by mobility shift assay. In addition, a combination showing the highest inhibitory activity is indicated by italics.

[6] = molecular target: CDK4/CycD3 (Homo sapiens, UniProt P11802); assay: IC50 by mobility shift assay; conditions: Table 3, CDK4, mobility shift assay; read-out: IC50 (μM), Kinase CDK4/CycD3
CDK4/CycD3, sequence (P11802 whole entry): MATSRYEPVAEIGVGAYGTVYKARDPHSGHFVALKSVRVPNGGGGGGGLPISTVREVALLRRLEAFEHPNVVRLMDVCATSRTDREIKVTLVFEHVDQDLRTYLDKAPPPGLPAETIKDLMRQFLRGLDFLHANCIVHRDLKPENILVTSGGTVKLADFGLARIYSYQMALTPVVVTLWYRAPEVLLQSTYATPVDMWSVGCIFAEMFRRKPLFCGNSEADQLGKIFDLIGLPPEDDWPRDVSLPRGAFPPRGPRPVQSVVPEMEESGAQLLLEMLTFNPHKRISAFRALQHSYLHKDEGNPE
CDK4/CycD3, sequence (P30281 whole entry partner): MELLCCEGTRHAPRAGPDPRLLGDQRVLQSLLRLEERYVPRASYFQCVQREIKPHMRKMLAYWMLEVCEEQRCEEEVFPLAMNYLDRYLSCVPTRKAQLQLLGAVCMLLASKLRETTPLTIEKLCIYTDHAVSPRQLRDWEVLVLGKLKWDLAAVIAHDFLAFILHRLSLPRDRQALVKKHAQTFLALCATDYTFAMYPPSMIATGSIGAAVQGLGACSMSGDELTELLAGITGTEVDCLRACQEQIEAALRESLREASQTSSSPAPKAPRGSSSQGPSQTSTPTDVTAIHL
Excerpt: Next, the compounds produced in Production Examples described above were each assessed for its inhibitory activity against CDK4 by mobility shift assay. In addition, a combination showing the highest inhibitory activity is indicated by italics.

PIK3CA/PIK3R1, sequence (P42336 whole entry): as the sequence (P42336 whole entry) above
PIK3CA/PIK3R1, sequence (P27986 whole entry partner): as the sequence (P27986 whole entry partner) above

Row | Compound | IC50 [1] | IC50 [2] | IC50 [3] | IC50 [4] | IC50 [5] | IC50 [6] | inhibitory activity against PIM2 [2]
1 | C[C@H]1CC[C@H]2C(C)(C)CCCC2(C)[C@]12C=C1C=C(O)C(=O)C(C=O)=C1O2 (stereo partly drawn) [CD-3, 8-epi-corallidictyal B] | 8.2 µM | – | – | – | – | – | –
2 | C[C@@H]1CC[C@H]2C(C)(C)CCC[C@]2(C)c2c1oc1c(C=O)c3c(cc21)OCO3 [LG-3] | – | 18 µM | 16.3 µM | 4.26 µM | 64.1 µM | 47.8 µM | –
3 | C[C@H]1CC[C@H]2C(C)(C)CCC[C@]2(C)c2c1oc1c(C=O)c3c(cc21)OCO3 [LG-4] | – | 13.8 µM | 191 µM | 4.43 µM | – | – | –
4 | C[C@H]1CC[C@H]2C(C)(C)CCC[C@]2(C)/C1=C/c1cc(O)c(O)c(C=O)c1O [SD-2, 8-epi-siphonodictyal B] | – | 2.79 µM | 4.24 µM | 3.26 µM | 25.6 µM | 22.4 µM | potent inhibitory actions
5 | C[C@H]1CC[C@H]2C(C)(C)CCC[C@]2(C)c2c1oc1c(C=O)c(O)c(O)cc21 [LG-2] | – | 2.81 µM | 9.08 µM | 1.72 µM | – | 125 µM | potent inhibitory actions
6 | C[C@@H]1CC[C@H]2C(C)(C)CCC[C@]2(C)/C1=C/c1cc(O)c(O)c(C=O)c1O [SD-1, siphonodictyal B] | – | 6.99 µM | 13.7 µM | 2.62 µM | 69.1 µM | 32.9 µM | –
